Entries after “also recorded” stand apart in the source; their conditions may differ. Where two headings read alike, the source gives them in different places.
Experiments:
[1] = tested on: melanoma; test: Organ activities in melanoma-bearing nude mice
Source text: A prognosis as to the tumor/background ratio in a tumor image can be made by means of the tumor/blood radioactivity ratio of a tracer in a tumor model.

[2] = quenched product
[3] = tested on: non-parvicellular lung tumor; test: Organ activities in lung tumor-bearing nude mice; details: about 0.5 MBq non-quenched tracer i.v.
[4] = Wagner et al., Cancer Research 2003; cited from earlier work
[5] = tested on: B cell lymphoma; details: 0.1 MBq, B cell lymphoma mouse model; cited from earlier work
[6] = tested on: fibrosarcoma; details: about 2.5 MBq, fibrosarcoma mouse model; cited from earlier work
[7] = about 0.5 MBq quenched tracer i.v., after 60 min

| Structure (SMILES) | tumor/blood radioactivity ratio [1, 7] | tumor/organ radioactivity ratios [1, 7] | storage of 18F in bone ([1]; about 0.5 MBq quenched tracer i.v., compared with non-quenched product) | PET imaging of tumor ([1]; melanoma mouse model) | passage of the blood-brain barrier ([1]; mouse animal experiments) | storage in tumor ([1]; mouse model, lung tumor and melanoma (summary)) | stability in serum ([2]; serum at room temperature (21° C.)) | stability in serum ([2]; serum in an incubator at 37° C.) | absorption of 18F in bone tissue ([3]; 30 and 60 min) | storage of activity in organs ([3]; organ activities after 30 min and 60 min) | increase of the fluoride concentration (isotonic NaCl solution at 21° C., over 4 hours, quenched with triethylamine) | stability in isotonic NaCl solution (isotonic NaCl solution, room temperature, before quenching step) | increase of the F ion concentration (isotonic NaCl solution, room temperature, within 1 hour, before quenching step) [%] | storage in the spleen of mice [4] | tumor/blood radioactivity ratio [5] | tumor/blood radioactivity ratio [6] |
| --- | --- | --- | --- | --- | --- | --- | --- | --- | --- | --- | --- | --- | --- | --- | --- | --- |
| [N-]=[N+]=N[C@H]1C[C@H](n2cc(C([18F])[18F])c(=O)[nH]c2=O)O[C@@H]1CO [α,α-^18F2-AZT, 5,5-^18F-difluoro-3′-deoxy-3′-azidothymidine] | 3.2 | high | lower | allows PET imaging of melanoma in a mouse model | passes the blood-brain barrier; also recorded: capable of passing the blood-brain barrier | stored in lung tumor and in melanoma | A similar result | markedly improved stability | particularly high | activity was stored in the tumor, in the spleen and in the colon | scarcely any increase | stable | 3 to 4.5 |  |  |  |
| Cc1cn([C@H]2C[C@H]([18F])[C@@H](CO)O2)c(=O)[nH]c1=O [^18F-FLT, 3′-^18F-fluoro-3′-deoxythymidine] |  |  |  |  |  |  |  |  |  |  |  |  |  | Marked storage | about 7 | 1.8 |

Reference: US20080292550A1, “Fluorinated 3'-Deoxythymidine Derivatives, a Method for Their Preparation and Their Use” (MAX-DELBRUECK-CENTRUM FUER MOLEKULARE MEDIZIN, priority 2005, published 2008)
